Source: paper PMC10480161, “Identification of potent and selective N-myristoyltransferase inhibitors of Plasmodium vivax liver stage hypnozoites and schizonts” (Nature Communications, 2023)
pIC50: −log10 of the molar value. Where “and” joins values, the source holds several entries; their conditions need not be identical. Equal entries are not always repeated.

How the values were obtained:
P. vivax hypnozoites = experiment: P. vivax liver stage assay, hypnozoites; format: cell-based, Plasmodium vivax; conditions: for Hypnozoites per well: Isolate 2, replicate wells (Figure 6d); for Number of liverstage hypnozoites per well: 20 µM, 8 dpi; for pIC50: primary human hepatocytes, treatment day 5 to 8 post-infection, isolate 2
Experimental: Finally, we evaluated the NMT-binding compounds against non-developing P. vivax hypnozoites. […] (Fig. 6A). […] We, therefore, evaluated the impact of all tested compounds on P. vivax hypnozoites using these two isolates.
(§1) Plasmodium vivax liver stage assays were performed as described previously. Cryopreserved primary human hepatocytes (Cat No. F00995-P) and hepatocyte culture medium (HCM) (InVitroGroTM CP Medium) were obtained from Bioreclamation IVT, Inc., (Baltimore, MD, USA). Briefly, we seeded 384-well plates with primary hepatocytes from a single donor lot at a density of 25,000 cells per well. We then infected the hepatocytes with 14,000 freshly hand-dissected sporozoites per well. Cells were exposed to the compounds at indicated concentrations from day 5 post-infection. We used Pi4K inhibitor MMV390048, at 20 µM, as a positive control to eliminate P. vivax liver schizonts. We then proceeded to feed cultures every day, replacing the compounds until day 8 post-infection. Cells were fixed with 4% PFA, permeabilized with 1% Triton X-100, blocked with 2% BSA, and stained with DAPI and PvUIS4 antibodies to detect schizonts and hypnozoites forms by confocal microscopy. For antibody dilutions, PvUIS4 (kind gift from Dr. Noah Sather, Seattle Children’s Research Institute) was diluted 1:250 and the secondary antibody was anti-mouse AlexaFluor-594 (Cat # A-11005; RRID: AB_2534073) diluted 1:1000. DAPI was diluted 1:2000. The images were processed, analyzed and outlier cells were removed using IMARIS (Bitplane Inc.) image analysis software.

PvNMT = PvNMT (Plasmodium vivax, UniProt A5K1A2); experiment: NMT activity assay (CPM detection of free CoA), PvNMT; conditions: for SI: enzyme selectivity, HsNMT IC50/PvNMT IC50; for pIC50: read-out: PvNMT IC50, mean of two or more determinations
P. vivax schizonts = experiment: P. vivax liver stage assay, schizonts; format: cell-based, Plasmodium vivax; conditions: for Number of liverstage Schizonts per well: 20 µM, 8 dpi; for pIC50: primary human hepatocytes, treatment day 5 to 8 post-infection, isolates 2 and 3
Experimental: We next evaluated the candidate compounds against liver-stage P. vivax (Fig. 5). P. vivax sporozoites were obtained from three independent patient isolates and cultured in primary human hepatocytes from a single donor lot using a 384-well microculture system as described previously. Cells were infected and treated with NMTis at 20 µM beginning day 5 post-infection until day 8 when the infection rates were quantified by fluorescent microscopy.
Accordingly, we applied dose–response curves of all the tested NMTs on parasite isolates 2 and 3 over concentrations up to 20 µM (Fig. 5c, d, Source Data file). We observed similar kinetics for all inhibitors, with a gradual decrease in parasite load upon increasing the drug concentration. […] Nuclei were counted in each well using DAPI staining as a measure of toxicity (Supplementary Fig. 86, Supplementary Source data). We used the phosphatidylinositol 4-kinase inhibitor (PI4Ki), MMV390048, as a positive control for eliminating schizonts[37],[38].
as §1

[1] = isolate 1, technical replicates (Fig. 6C)
[2] = isolate 2, technical replicates (Fig. 6C)
[3] = isolate 3, technical replicates (Fig. 6C)
[4] = isolate 1, technical replicates (Fig. 5b)
[5] = isolate 2, technical replicates (Fig. 5b)
[6] = isolate 3, technical replicates (Fig. 5b)

Chain of PvNMT (A5K1A2 entry or part of it): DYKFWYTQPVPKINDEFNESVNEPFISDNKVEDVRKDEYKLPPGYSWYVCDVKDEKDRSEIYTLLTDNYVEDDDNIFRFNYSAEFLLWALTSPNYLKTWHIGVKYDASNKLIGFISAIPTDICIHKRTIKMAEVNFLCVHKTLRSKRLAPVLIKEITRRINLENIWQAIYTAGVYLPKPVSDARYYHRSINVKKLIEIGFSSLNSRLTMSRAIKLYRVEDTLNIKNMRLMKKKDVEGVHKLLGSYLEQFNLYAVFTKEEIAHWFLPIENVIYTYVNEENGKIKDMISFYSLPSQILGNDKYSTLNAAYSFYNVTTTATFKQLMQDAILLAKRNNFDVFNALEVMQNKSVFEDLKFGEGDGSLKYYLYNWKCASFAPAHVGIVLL

SMILES | Hypnozoites per well (P. vivax hypnozoites; 1.25 uM) | Hypnozoites per well (P. vivax hypnozoites; 2.5 uM) | Hypnozoites per well (P. vivax hypnozoites; 5 uM) | Hypnozoites per well (P. vivax hypnozoites; 10 uM) | Number of liverstage hypnozoites per well (P. vivax hypnozoites; [1]) | Number of liverstage hypnozoites per well (P. vivax hypnozoites; [2]) | Number of liverstage hypnozoites per well (P. vivax hypnozoites; [3]) [per well] | Hypnozoites per well (P. vivax hypnozoites; 20 uM) | hypnozoites (fold change to DMSO) mean diff (P. vivax hypnozoites; isolate 1, 20 µM) | hypnozoites (fold change to DMSO) mean diff (P. vivax hypnozoites; isolate 2, 20 µM) | pIC50 (P. vivax hypnozoites) | SI (PvNMT) | pIC50 (PvNMT) | Number of liverstage Schizonts per well (P. vivax schizonts; [4]) | Number of liverstage Schizonts per well (P. vivax schizonts; [5]) | Number of liverstage Schizonts per well (P. vivax schizonts; [6]) | Schizonts per well (P. vivax schizonts; Isolate 2, 1.25 uM) | Schizonts per well (P. vivax schizonts; Isolate 2, 2.5 uM) | Schizonts per well (P. vivax schizonts; Isolate 2, 5 uM) | Schizonts per well (P. vivax schizonts; Isolate 2, 10 uM) | also measured
Cc1n[nH]c(C)c1CCOc1cc(F)ccc1-c1ccnc(N2CCNCC2)c1 [Compound 12q] | 11 and 8 and 10 | 8 and 5 and 7 | 5 and 6 and 3 | 5 and 0 and 3 | 0 per well (2×) and 1 per well | 1 per well (2×) and 0 per well | 0 | 1 (2×) and 0 | 0.939 | 0.931 | 5.36 | 22 | 7.14 | 0 per well (2×) and 1 per well | 3 per well and 4 per well and 1 per well | 3 per well and 7 per well | 11 per well and 15 per well and 12 per well | 7 per well and 9 per well and 13 per well | 9 per well and 11 per well and 12 per well | 7 per well and 5 per well and 6 per well | Schizonts per well (P. vivax schizonts; Isolate 3, 1.25 uM): 12 per well and 13 per well; Schizonts per well (P. vivax schizonts; Isolate 3, 2.5 uM): 6 per well and 11 per well; Schizonts per well (P. vivax schizonts; Isolate 3, 5 uM): 7 per well and 6 per well; Schizonts per well (P. vivax schizonts; Isolate 3, 10 uM): 5 per well and 8 per well; schizonts (fold change to DMSO) mean diff (P. vivax schizonts; isolate 1, 20 µM): 0.983; schizonts (fold change to DMSO) mean diff (P. vivax schizonts; isolate 2, 20 µM): 0.8491; schizonts (fold change to DMSO) mean diff (P. vivax schizonts; isolate 3, 20 µM): 0.6591; pIC50 (P. vivax schizonts): 5.46 to 5.66
Cc1nn(C)c(C)c1CCOc1ccc2ccccc2c1-c1ccnc(N2CCNCC2)c1 [Compound 30a] | 6 and 9 and 13 | 5 and 0 and 3 | 2 (2×) and 0 | 1 and 0 and 2 | 0 per well | 0 per well | 0 | 0 | 0.954 | 1.000 | 5.68 | 269.8 | 7.05 | 0 per well | 2 per well (2×) and 0 per well | 4 per well and 0 per well | 10 per well and 11 per well and 19 per well | 11 per well and 12 per well and 16 per well | 6 per well and 8 per well and 11 per well | 4 per well and 7 per well and 8 per well | Schizonts per well (P. vivax schizonts; Isolate 3, 1.25 uM): 13 per well and 11 per well; Schizonts per well (P. vivax schizonts; Isolate 3, 2.5 uM): 7 per well and 6 per well; Schizonts per well (P. vivax schizonts; Isolate 3, 5 uM): 8 per well and 4 per well; Schizonts per well (P. vivax schizonts; Isolate 3, 10 uM): 5 per well and 7 per well; schizonts (fold change to DMSO) mean diff (P. vivax schizonts; isolate 1, 20 µM): 1.000; schizonts (fold change to DMSO) mean diff (P. vivax schizonts; isolate 2, 20 µM): 0.9245; schizonts (fold change to DMSO) mean diff (P. vivax schizonts; isolate 3, 20 µM): 0.8636; pIC50 (P. vivax schizonts): 5.37 to 5.54
